PubChem BioAssay AID248 (DTP/NCI, 2004)
“And” between values parts separate entries of the source, which are not always exact repeats. Identical values can stand only once. Toxic doses and inconclusive results are not listed.

Test system: L1210 leukemia ip in BDF1 mice, survival T/C
Assay: NCI In Vivo Anticancer Drug Screen. Data for tumor model L1210 Leukemia (intraperitoneal) in B6D2F1 (BDF1) mice
Details: endpoint: mean survival time, higher = longer survival
Method in brief: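 Transplanted-tumor mice were given test agent; controls received vehicle only. Survival readings from the two groups were divided (treated over control).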

[1] = dose: 100.0 mg/kg/injection, schedule: Q01DX009 (ip), vehicle: Klucel (hydroxypropylcellulose) (HPC)
[2] = dose: 100.0 mg/kg/injection, schedule: Q04DX003 (ip), vehicle: Klucel (hydroxypropylcellulose) (HPC)
[3] = dose: 100.0 mg/kg/injection, schedule: Q01DX009 (ip), vehicle: saline with Tween-80
[4] = dose: 200.0 mg/kg/injection, schedule: Q01DX009 (ip), vehicle: saline with Tween-80
[5] = dose: 400.0 mg/kg/injection, schedule: Q01DX009 (ip), vehicle: saline with Tween-80
[6] = dose: 50.0 mg/kg/injection, schedule: Q01DX001 (ip), vehicle: saline
[7] = dose: 100.0 mg/kg/injection, schedule: Q01DX001 (ip), vehicle: saline
[8] = dose: 25.0 mg/kg/injection, schedule: Q01DX009 (ip), vehicle: saline with Tween-80
[9] = dose: 50.0 mg/kg/injection, schedule: Q01DX009 (ip), vehicle: saline with Tween-80
[10] = dose: 100.0 mg/kg/injection, schedule: Q04DX003 (ip), vehicle: saline
[11] = dose: 200.0 mg/kg/injection, schedule: Q01DX001 (ip), vehicle: saline
[12] = dose: 400.0 mg/kg/injection, schedule: Q01DX001 (ip), vehicle: saline
[13] = dose: 100.0 mg/kg/injection, schedule: Q04DX002 (ip), vehicle: saline
[14] = dose: 200.0 mg/kg/injection, schedule: Q04DX002 (ip), vehicle: saline
[15] = dose: 300.0 mg/kg/injection, schedule: Q01DX001 (ip), vehicle: saline
[16] = dose: 400.0 mg/kg/injection, schedule: Q04DX002 (ip), vehicle: saline
[17] = dose: 200.0 mg/kg/injection, schedule: Q01DX009 (ip), vehicle: Klucel (hydroxypropylcellulose) (HPC)
[18] = dose: 400.0 mg/kg/injection, schedule: Q01DX009 (ip), vehicle: Klucel (hydroxypropylcellulose) (HPC)

## CC1(C)C(C#N)C(=O)N=C(N)C1C(N)=O (stereo unspecified)
dose: 25.0 mg/kg/injection, schedule: Q01DX009 (ip), vehicle: Klucel (hydroxypropylcellulose) (HPC)
  T/C: 94 % of control
dose: 50.0 mg/kg/injection, schedule: Q01DX009 (ip), vehicle: Klucel (hydroxypropylcellulose) (HPC)
  T/C: 94 % of control
[1]
  T/C: 94 % of control
[2]
  T/C: 92 % of control

## CC12OC3(C)C4C(=O)OC1C1(C)OC4(C)C3C(=O)OC21
[3]
  T/C: 102 % of control
[4]
  T/C: 101 % of control
[5]
  T/C: 98 % of control

## Nc1nc(N)c(-c2ccc(Cl)cc2)c(CCc2ccc(NC(=O)CBr)cc2)n1
[6]
  T/C: 116 % of control
[7]
  T/C: 110 % of control

## O=S(=O)(C(Br)CBr)C(Br)CBr (stereo unspecified)
[8]
  T/C: 94 % of control
[9]
  T/C: 107 % of control

## CCOC(=O)NNC(=O)c1ccccc1
dose: 12.5 mg/kg/injection, schedule: Q01DX009 (ip), vehicle: alcohol
  T/C: 100 % of control
dose: 25.0 mg/kg/injection, schedule: Q01DX009 (ip), vehicle: alcohol
  T/C: 90 % of control
dose: 25.0 mg/kg/injection, schedule: Q04DX003 (ip), vehicle: alcohol
  T/C: 103 % of control
dose: 50.0 mg/kg/injection, schedule: Q01DX009 (ip), vehicle: alcohol
  T/C: 89 % of control
dose: 50.0 mg/kg/injection, schedule: Q04DX003 (ip), vehicle: alcohol
  T/C: 101 % of control

## CCN(CC)CCOc1cccc(Oc2ccccc2)c1
dose: 50.0 mg/kg/injection, schedule: Q01DX009 (ip), vehicle: saline
  T/C: 96 % of control
dose: 100.0 mg/kg/injection, schedule: Q01DX009 (ip), vehicle: saline
  T/C: 117 % of control
[10]
  T/C: 98 % of control

## C1=C\CCCCCCCC/1
dose: 6.25 mg/kg/injection, schedule: Q01DX009 (ip), vehicle: saline with Tween-80
  T/C: 93 % of control
dose: 12.5 mg/kg/injection, schedule: Q01DX009 (ip), vehicle: saline with Tween-80
  T/C: 104 % of control
[8]
  T/C: 98 % of control
[7]
  T/C: 101 % of control
[11]
  T/C: 101 % of control
[12]
  T/C: 95 % of control

## Cc1ccc(NC(=O)N(CCCl)N=O)cc1Cl
dose: 0.5 mg/kg/injection, schedule: Q01DX009 (ip), vehicle: carboxymethylcellulose (CMC)
  T/C: 112 % of control
dose: 1.0 mg/kg/injection, schedule: Q01DX009 (ip), vehicle: carboxymethylcellulose (CMC)
  T/C: 117 % of control
dose: 13.0 mg/kg/injection, schedule: Q01DX001 (ip), vehicle: carboxymethylcellulose (CMC)
  T/C: 120 % of control
dose: 13.0 mg/kg/injection, schedule: Q01DX007 (ip), vehicle: carboxymethylcellulose (CMC)
  T/C: 159 % of control
dose: 14.0 mg/kg/injection, schedule: Q01DX009 (ip), vehicle: carboxymethylcellulose (CMC)
  T/C: 164 % of control
dose: 29.0 mg/kg/injection, schedule: Q01DX001 (ip), vehicle: other
  T/C: 229 % of control
dose: 33.0 mg/kg/injection, schedule: Q01DX009 (ip), vehicle: carboxymethylcellulose (CMC)
  T/C: 166 % of control
dose: 44.0 mg/kg/injection, schedule: Q01DX001 (ip), vehicle: other
  T/C: 159 % of control
dose: 44.4 mg/kg/injection, schedule: Q01DX001 (ip), vehicle: carboxymethylcellulose (CMC)
  T/C: 159 % of control
dose: 66.6 mg/kg/injection, schedule: Q01DX001 (ip), vehicle: carboxymethylcellulose (CMC)
  T/C: 244 % of control
dose: 100.0 mg/kg/injection, schedule: Q01DX001 (ip), vehicle: carboxymethylcellulose (CMC)
  T/C: 193 % of control
dose: 150.0 mg/kg/injection, schedule: Q01DX001 (ip), vehicle: carboxymethylcellulose (CMC)
  T/C: 100 % of control

## O=C(N/N=C\c1ccc([N+](=O)[O-])cc1)c1ccncc1
[3]
  T/C: 94 % of control
[4]
  T/C: 94 % of control
[5]
  T/C: 98 % of control

## CC(C)=C(C=O)CCC(C)C
[3]
  T/C: 93 % of control
dose: 100.0 mg/kg/injection, schedule: Q04DX003 (ip), vehicle: saline with Tween-80
  T/C: 95 % of control
[4]
  T/C: 88 % of control
dose: 200.0 mg/kg/injection, schedule: Q04DX003 (ip), vehicle: saline with Tween-80
  T/C: 93 % of control
dose: 400.0 mg/kg/injection, schedule: Q04DX003 (ip), vehicle: saline with Tween-80
  T/C: 97 % of control

## O=C(OC1CCC/C=C\CCCC1)c1ccc([N+](=O)[O-])cc1 (stereo unspecified)
[7]
  T/C: 93 % of control
[11]
  T/C: 98 % of control
[12]
  T/C: 96 % of control

## CNC(=O)NC
[10]
  T/C: 94 % of control
dose: 200.0 mg/kg/injection, schedule: Q04DX003 (ip), vehicle: saline
  T/C: 102 % of control
dose: 400.0 mg/kg/injection, schedule: Q04DX003 (ip), vehicle: saline
  T/C: 94 % of control

## CCCOC(=O)C(C)(O)C(Cl)c1ccccc1 (stereo unspecified)
dose: 37.5 mg/kg/injection, schedule: Q01DX009 (ip), vehicle: Klucel (hydroxypropylcellulose) (HPC)
  T/C: 96 % of control
[6]
  T/C: 104 % of control
dose: 58.0 mg/kg/injection, schedule: Q01DX001 (ip), vehicle: saline
  T/C: 108 % of control
dose: 75.0 mg/kg/injection, schedule: Q01DX009 (ip), vehicle: Klucel (hydroxypropylcellulose) (HPC)
  T/C: 100 % of control
dose: 88.0 mg/kg/injection, schedule: Q01DX001 (ip), vehicle: saline
  T/C: 107 % of control
[7]
  T/C: 103 % of control
[13]
  T/C: 109 % of control and 114 % of control
dose: 133.0 mg/kg/injection, schedule: Q01DX001 (ip), vehicle: saline
  T/C: 103 % of control
dose: 150.0 mg/kg/injection, schedule: Q01DX009 (ip), vehicle: Klucel (hydroxypropylcellulose) (HPC)
  T/C: 104 % of control
[11]
  T/C: 106 % of control and 109 % of control
[14]
  T/C: 117 % of control
[15]
  T/C: 98 % of control
dose: 300.0 mg/kg/injection, schedule: Q01DX009 (ip), vehicle: Klucel (hydroxypropylcellulose) (HPC)
  T/C: 104 % of control
[12]
  T/C: 96 % of control
[16]
  T/C: 105 % of control and 118 % of control

## NC(=O)NC(=O)c1ccccn1
dose: 75.0 mg/kg/injection, schedule: Q01DX001 (ip), vehicle: saline
  T/C: 106 % of control
dose: 150.0 mg/kg/injection, schedule: Q01DX001 (ip), vehicle: saline
  T/C: 97 % of control
[15]
  T/C: 100 % of control

## O=C(O)COc1nc2ccccc2s1
[1]
  T/C: 95 % of control
dose: 100.0 mg/kg/injection, schedule: Q04DX003 (ip), vehicle: alcohol
  T/C: 105 % of control
[17]
  T/C: 96 % of control
dose: 200.0 mg/kg/injection, schedule: Q04DX003 (ip), vehicle: alcohol
  T/C: 98 % of control
[18]
  T/C: 88 % of control
dose: 400.0 mg/kg/injection, schedule: Q04DX003 (ip), vehicle: alcohol
  T/C: 94 % of control

## O=C(CCCC(=O)NO)NO
dose: 100.0 mg/kg/injection, schedule: Q04DX002 (ip), vehicle: saline with Tween-80
  T/C: 113 % of control
[13]
  T/C: 100 % of control
dose: 200.0 mg/kg/injection, schedule: Q04DX002 (ip), vehicle: saline with Tween-80
  T/C: 100 % of control
[14]
  T/C: 97 % of control
dose: 400.0 mg/kg/injection, schedule: Q04DX002 (ip), vehicle: saline with Tween-80
  T/C: 97 % of control
[16]
  T/C: 113 % of control

## O=C(NCc1cnccn1)c1ccc(Cl)c(Cl)c1
[3]
  T/C: 98 % of control
[4]
  T/C: 98 % of control
[5]
  T/C: 106 % of control

## O=C(COc1ccccc1)N/N=C/c1cccc([N+](=O)[O-])c1
[8]
  T/C: 92 % of control
[9]
  T/C: 86 % of control
[3]
  T/C: 86 % of control

## Cc1ccc(N2C(=O)CC(c3ccccc3)C2C(=O)O)cc1 (stereo unspecified)
dose: 100.0 mg/kg/injection, schedule: Q04DX002 (ip), vehicle: Klucel (hydroxypropylcellulose) (HPC)
  T/C: 100 % of control
dose: 200.0 mg/kg/injection, schedule: Q04DX002 (ip), vehicle: Klucel (hydroxypropylcellulose) (HPC)
  T/C: 103 % of control
dose: 400.0 mg/kg/injection, schedule: Q04DX002 (ip), vehicle: Klucel (hydroxypropylcellulose) (HPC)
  T/C: 103 % of control

## COc1ccc(NC(=O)COc2ccc(Cl)cc2)cc1
[1]
  T/C: 93 % of control
[2]
  T/C: 100 % of control
[17]
  T/C: 90 % of control
dose: 200.0 mg/kg/injection, schedule: Q04DX003 (ip), vehicle: Klucel (hydroxypropylcellulose) (HPC)
  T/C: 106 % of control
[18]
  T/C: 92 % of control
dose: 400.0 mg/kg/injection, schedule: Q04DX003 (ip), vehicle: Klucel (hydroxypropylcellulose) (HPC)
  T/C: 93 % of control
